Measurements as given in PubChem BioAssay (NCI).
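1) Cells in 96-well plates. 2) Compound, 48 h, 5 concentrations. 3) Linear interpolation between surrounding doses. 4) Unreached endpoint = highest concentration. GI50 marks 50% less growth. TGI marks complete inhibition of growth.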

Legend:
Assay in all cases: NCI-60 cell line screen, 48 h
A549 NSCLC = system: A549 NSCLC
UO-31 renal = system: UO-31 renal
MALME-3M melanoma = system: MALME-3M melanoma
SK-MEL-5 melanoma = system: SK-MEL-5 melanoma
RXF 393 renal = system: RXF 393 renal
OVCAR-8 ovarian = system: OVCAR-8 ovarian
HCT-116 colon = system: HCT-116 colon
UACC-257 melanoma = system: UACC-257 melanoma
OVCAR-3 ovarian = system: OVCAR-3 ovarian
MDA-MB-435 = system: MDA-MB-435

SMILES	TGI (A549 NSCLC) [µM]	TGI (UO-31 renal) [µM]	TGI (MALME-3M melanoma) [µM]	TGI (SK-MEL-5 melanoma) [µM]	TGI (RXF 393 renal) [µM]	TGI (OVCAR-8 ovarian) [µM]	TGI (HCT-116 colon) [µM]	TGI (UACC-257 melanoma) [µM]	TGI (OVCAR-3 ovarian) [µM]	GI50 (MDA-MB-435) [µM]	TGI (MDA-MB-435) [µM]	GI50 (A549 NSCLC) [µM]	GI50 (UO-31 renal) [µM]	GI50 (MALME-3M melanoma) [µM]	GI50 (SK-MEL-5 melanoma) [µM]	GI50 (UACC-257 melanoma) [µM]	GI50 (OVCAR-3 ovarian) [µM]	GI50 (OVCAR-8 ovarian) [µM]	GI50 (HCT-116 colon) [µM]	GI50 (RXF 393 renal) [µM]
[N-]=[N+]=NC(c1cn(C2CC(O)C(CO)O2)c(=O)[nH]c1=O)C(Cl)Br (centres undefined)	> 100	> 100	> 100	> 100	> 100	> 100	> 100	–	–	–	–	–	–	–	–	–	–	–	–	–
Cc1c(C(=O)C/C(=N/NC(=O)c2ccccc2)C(=O)Nc2ccc(Cl)cc2)[n+](=O)c2ccccc2n1[O-]	> 100	–	> 100	> 100	> 100	> 100	> 100	> 100	> 100	–	–	–	–	–	–	–	–	–	–	–
CCCn1c2c(c3c(O)cccc31)C(=O)c1ccccc1-2	> 100	> 100	> 100	> 100	–	> 100	> 100	96.5	> 100	> 100	> 100	21.8	22.8	64.6	11.9	22.9	31.3	22.5	29.2	–
C[N+]1=c2c3cccc4cccc(c(=O)n2CC1)c43	53	32.4	22.6	32.8	25.5	80.9	17.3	30	79.8	–	–	–	–	–	–	–	–	–	–	–
COc1cc2c(cc1OC)C(C(=O)O)C(c1ccccc1)N(C)C2=O (centres undefined)	> 100	> 100	> 100	> 100	–	> 100	> 100	> 100	> 100	–	–	–	–	–	–	–	–	–	–	–
CC(C)/C=C1\CCC(CN2CCOCC2)C1=O (centres undefined)	72.6	38.6	31	36.8	14.1	> 40.8	23.4	20.1	32.7	–	–	–	–	–	–	–	–	–	–	–
O=C1C2C(C(=O)N1c1ccccc1)C1c3ccccc3C2C2C(=O)N(c3ccccc3)C(=O)C21 (centres undefined)	> 100	> 100	67.8	> 100	> 100	> 100	> 100	> 100	> 100	–	–	–	–	–	–	–	–	–	–	–
Cc1cc(N(CCC#N)S(=O)(=O)c2ccccc2)ccc1/C=C1\N=C(c2ccc(Cl)cc2)OC1=O	> 100	> 100	> 100	> 100	> 100	> 100	> 100	> 100	> 100	–	–	–	–	–	–	–	–	–	–	–
CCCn1c(SCCSc2c3ccccc3c(-c3nc(F)nc(F)n3)n2CCC)c2ccccc2c1-c1nc(F)nc(F)n1	> 100	> 100	> 100	–	> 100	> 100	> 100	> 100	> 100	–	–	–	–	–	–	–	–	–	–	–
COc1cc2c(cc1OC)-c1ncc3c(OC)ccc(OC)c3c1C2	> 100	60	–	34.3	48.9	38.2	> 100	55.4	46.8	23.4	99.6	16.1	18.3	–	12.4	19.7	15.4	2.36	17.8	16.4
COc1cc(/C=C/c2ccc(C)cc2)cc(OC)c1OC	70.1	23.6	10.5	13.3	–	15.9	14.2	31.5	6.93	–	3.14	–	–	–	–	–	–	–	–	–
Cc1ccc(S(=O)(=O)N/N=C(\c2nc3ccc(Cl)cc3[nH]c2=O)C(O)c2ccco2)cc1 (centres undefined)	> 100	–	> 100	> 100	> 100	–	> 100	> 100	> 100	–	–	–	–	–	–	–	–	–	–	–
COc1ccccc1/C=C1\COc2ccc(-c3ccccc3)cc2C1=O	8.9	37.3	40.4	7.61	–	10.5	12	–	5.48	2.11	> 100	2.61	8.93	3.81	2.19	–	2.58	3.27	2.98	–
CC(C)C1CO[C@]2(C)CCC(=O)N12 (some centres undefined)	> 100	> 100	> 100	> 100	> 100	> 100	> 100	> 100	> 100	–	–	–	–	–	–	–	–	–	–	–
C/C(CC(=O)NCCc1ccccc1)=N\NS(=O)(=O)c1ccc(C)cc1	> 100	> 100	> 100	> 100	> 100	> 100	> 100	> 100	> 100	–	–	–	–	–	–	–	–	–	–	–
Cc1cc2c(c(C(N)=O)c1C)-c1cccc(F)c1C2=O	> 100	> 100	> 100	> 100	–	> 100	> 100	> 100	> 100	–	–	–	–	–	–	–	–	–	–	–
C=CC(=O)N1C/C(=C\c2ccc(Cl)c(Cl)c2)C(=O)/C(=C/c2ccc(Cl)c(Cl)c2)C1	–	0.528	–	1.74	0.299	0.274	0.188	1.57	0.219	–	–	–	–	–	–	–	–	–	–	–
CCOC(=O)NC(=O)c1cn(CCN2CCN(C(=O)CNC(=O)CNC(=O)Cn3cc(C(=O)NC(=O)OCC)c(=O)[nH]c3=O)CC2)c(=O)[nH]c1=O	> 100	> 100	> 100	–	–	> 100	> 100	> 100	> 100	–	–	–	–	–	–	–	–	–	–	–
COc1c(C(C)=O)c(OCCCCOc2c(C(C)=O)c(OC)c3ccoc3c2OC)c(OC)c2occc12	> 100	> 100	8.3	3.4	–	7.85	> 100	–	> 100	2.14	> 100	3.35	2.34	2.31	1.52	–	3.75	2.27	3.71	–
CCC[CH2][Sn]([CH2]CCC)([O]C(=O)c1cc(OC)c(OC)cc1OC)[O][Sn]([CH2]CCC)([CH2]CCC)[O]C(=O)c1cc(OC)c(OC)cc1OC	3.5	2.6	0.977	2.15	0.304	1.89	1.82	0.883	2.07	–	–	1.67	1.33	0.229	0.898	0.276	0.798	0.583	0.67	0.151
